{"source": "PubChem BioAssay (NCI)", "assay_in_all_cases": "inhibition of tumour cell growth, NCI panel, 48 h", "key": {"[1]": {"test_system": "NCI-H226 lung"}, "[2]": {"test_system": "NCI-H23 lung"}, "[3]": {"test_system": "NCI-H460 lung"}, "[4]": {"test_system": "NCI-H522 lung"}, "[5]": {"test_system": "NCI/ADR-RES ovarian"}, "[6]": {"test_system": "OVCAR-3 ovarian"}, "[7]": {"test_system": "OVCAR-4 ovarian"}, "[8]": {"test_system": "OVCAR-5 ovarian"}, "[9]": {"test_system": "OVCAR-8 ovarian"}, "[10]": {"test_system": "PC-3 prostate"}, "[11]": {"test_system": "RPMI-8226 leukemia"}, "[12]": {"test_system": "RXF 393 renal"}, "[13]": {"test_system": "SF-268 CNS"}, "[14]": {"test_system": "SF-295 CNS"}, "[15]": {"test_system": "SF-539 CNS"}, "[16]": {"test_system": "SK-MEL-2 melanoma"}, "[17]": {"test_system": "SK-MEL-28 melanoma"}, "[18]": {"test_system": "SK-MEL-5 melanoma"}, "[19]": {"test_system": "SK-OV-3 ovarian"}, "[20]": {"test_system": "SN12C renal"}, "[21]": {"test_system": "SNB-19 CNS"}, "[22]": {"test_system": "SNB-75 CNS"}, "[23]": {"test_system": "SR leukemia"}, "[24]": {"test_system": "SW-620 colon"}, "[25]": {"test_system": "T-47D breast"}, "[26]": {"test_system": "TK-10 renal"}, "[27]": {"test_system": "U251 CNS"}, "[28]": {"test_system": "UACC-257 melanoma"}, "[29]": {"test_system": "UACC-62 melanoma"}, "[30]": {"test_system": "UO-31 renal"}}, "note": "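Assay format: 96-well plates, 48-hour exposure. GI50 = concentration required for 50% inhibition of growth. TGI is the concentration that stops growth completely.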", "data": [{"smiles": "CCOc1ccccc1[C@H]1C(C(=O)c2ccc(Cl)cc2)C2(N[C@@H]1c1ccccc1)C(=O)Nc1ccccc12", "note": "(some centres undefined)", "values": [{"measurement": "TGI", "setting": "[1]", "value": 18.5, "unit": "µM"}, {"measurement": "GI50", "setting": "[2]", "value": 7.78, "unit": "µM"}, {"measurement": "TGI", "setting": "[2]", "value": "> 39.8", "unit": "µM"}, {"measurement": "GI50", "setting": "[3]", "value": 8, "unit": "µM"}, {"measurement": "TGI", "setting": "[3]", "value": 21.5, "unit": "µM"}, {"measurement": "GI50", "setting": "[4]", "value": 6.14, "unit": "µM"}, {"measurement": "TGI", "setting": "[4]", "value": 22.8, "unit": "µM"}, {"measurement": "GI50", "setting": "[5]", "value": 5.64, "unit": "µM"}, {"measurement": "TGI", "setting": "[5]", "value": 16.6, "unit": "µM"}, {"measurement": "GI50", "setting": "[6]", "value": 7.68, "unit": "µM"}, {"measurement": "TGI", "setting": "[6]", "value": "> 39.8", "unit": "µM"}, {"measurement": "GI50", "setting": "[7]", "value": 14.8, "unit": "µM"}, {"measurement": "TGI", "setting": "[7]", "value": "> 39.8", "unit": "µM"}, {"measurement": "GI50", "setting": "[8]", "value": 10.1, "unit": "µM"}, {"measurement": "TGI", "setting": "[8]", "value": "> 39.8", "unit": "µM"}, {"measurement": "GI50", "setting": "[9]", "value": 11.9, "unit": "µM"}, {"measurement": "TGI", "setting": "[9]", "value": "> 39.8", "unit": "µM"}, {"measurement": "GI50", "setting": "[10]", "value": 2.77, "unit": "µM"}, {"measurement": "TGI", "setting": "[10]", "value": "> 39.8", "unit": "µM"}, {"measurement": "GI50", "setting": "[11]", "value": 8.82, "unit": "µM"}, {"measurement": "TGI", "setting": "[11]", "value": "> 39.8", "unit": "µM"}, {"measurement": "GI50", "setting": "[12]", "value": 5.35, "unit": "µM"}, {"measurement": "TGI", "setting": "[12]", "value": 19.2, "unit": "µM"}, {"measurement": "GI50", "setting": "[13]", "value": 12.2, "unit": "µM"}, {"measurement": "TGI", "setting": "[13]", "value": "> 39.8", "unit": "µM"}, {"measurement": "GI50", "setting": "[14]", "value": 7.88, "unit": "µM"}, {"measurement": "TGI", "setting": "[14]", "value": "> 39.8", "unit": "µM"}, {"measurement": "GI50", "setting": "[15]", "value": 23.3, "unit": "µM"}, {"measurement": "TGI", "setting": "[15]", "value": "> 39.8", "unit": "µM"}, {"measurement": "GI50", "setting": "[16]", "value": 7.37, "unit": "µM"}, {"measurement": "TGI", "setting": "[16]", "value": 17.5, "unit": "µM"}, {"measurement": "GI50", "setting": "[17]", "value": 17.4, "unit": "µM"}, {"measurement": "TGI", "setting": "[17]", "value": "> 39.8", "unit": "µM"}, {"measurement": "GI50", "setting": "[18]", "value": 6.1, "unit": "µM"}, {"measurement": "TGI", "setting": "[18]", "value": 12.2, "unit": "µM"}, {"measurement": "GI50", "setting": "[19]", "value": 22.1, "unit": "µM"}, {"measurement": "TGI", "setting": "[19]", "value": "> 39.8", "unit": "µM"}, {"measurement": "GI50", "setting": "[20]", "value": 5.56, "unit": "µM"}, {"measurement": "TGI", "setting": "[20]", "value": 11.9, "unit": "µM"}, {"measurement": "GI50", "setting": "[21]", "value": 16.6, "unit": "µM"}, {"measurement": "TGI", "setting": "[21]", "value": "> 39.8", "unit": "µM"}, {"measurement": "GI50", "setting": "[22]", "value": 6.24, "unit": "µM"}, {"measurement": "TGI", "setting": "[22]", "value": "> 39.8", "unit": "µM"}, {"measurement": "GI50", "setting": "[23]", "value": 9.21, "unit": "µM"}, {"measurement": "TGI", "setting": "[23]", "value": "> 39.8", "unit": "µM"}, {"measurement": "GI50", "setting": "[24]", "value": 10.1, "unit": "µM"}, {"measurement": "TGI", "setting": "[24]", "value": "> 39.8", "unit": "µM"}, {"measurement": "GI50", "setting": "[25]", "value": 6.48, "unit": "µM"}, {"measurement": "TGI", "setting": "[25]", "value": "> 39.8", "unit": "µM"}, {"measurement": "GI50", "setting": "[26]", "value": 15.6, "unit": "µM"}, {"measurement": "TGI", "setting": "[26]", "value": "> 39.8", "unit": "µM"}, {"measurement": "GI50", "setting": "[27]", "value": 13, "unit": "µM"}, {"measurement": "TGI", "setting": "[27]", "value": "> 39.8", "unit": "µM"}, {"measurement": "GI50", "setting": "[28]", "value": 8.91, "unit": "µM"}, {"measurement": "TGI", "setting": "[28]", "value": "> 39.8", "unit": "µM"}, {"measurement": "GI50", "setting": "[29]", "value": 4.65, "unit": "µM"}, {"measurement": "TGI", "setting": "[29]", "value": 18.2, "unit": "µM"}, {"measurement": "GI50", "setting": "[30]", "value": 5.82, "unit": "µM"}, {"measurement": "TGI", "setting": "[30]", "value": "> 39.8", "unit": "µM"}]}]}
